What was measured:
[1] = target: T1, h AdT (Homo sapiens, UniProt Q99808); assay: receptor profile (Table S4); assay type: binding
T1 sequence (Q99808 2-456 limits assumed): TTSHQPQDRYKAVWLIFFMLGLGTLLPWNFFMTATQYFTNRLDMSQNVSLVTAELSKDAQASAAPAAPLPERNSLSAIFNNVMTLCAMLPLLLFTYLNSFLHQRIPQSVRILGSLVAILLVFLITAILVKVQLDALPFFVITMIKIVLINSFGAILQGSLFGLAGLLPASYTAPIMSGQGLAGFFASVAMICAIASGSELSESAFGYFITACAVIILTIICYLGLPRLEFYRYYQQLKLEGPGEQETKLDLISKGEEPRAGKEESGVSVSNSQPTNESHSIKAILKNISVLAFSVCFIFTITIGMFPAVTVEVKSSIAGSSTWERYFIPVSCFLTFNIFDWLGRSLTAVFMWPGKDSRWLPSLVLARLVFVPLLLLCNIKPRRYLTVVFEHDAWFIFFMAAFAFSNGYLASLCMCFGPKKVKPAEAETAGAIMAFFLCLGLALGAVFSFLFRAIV

[2] = target: T2, hr GR ag (Homo sapiens, UniProt P04150); assay: receptor profile (Table S4); assay type: biochemical
T2 sequence (P04150 1-777): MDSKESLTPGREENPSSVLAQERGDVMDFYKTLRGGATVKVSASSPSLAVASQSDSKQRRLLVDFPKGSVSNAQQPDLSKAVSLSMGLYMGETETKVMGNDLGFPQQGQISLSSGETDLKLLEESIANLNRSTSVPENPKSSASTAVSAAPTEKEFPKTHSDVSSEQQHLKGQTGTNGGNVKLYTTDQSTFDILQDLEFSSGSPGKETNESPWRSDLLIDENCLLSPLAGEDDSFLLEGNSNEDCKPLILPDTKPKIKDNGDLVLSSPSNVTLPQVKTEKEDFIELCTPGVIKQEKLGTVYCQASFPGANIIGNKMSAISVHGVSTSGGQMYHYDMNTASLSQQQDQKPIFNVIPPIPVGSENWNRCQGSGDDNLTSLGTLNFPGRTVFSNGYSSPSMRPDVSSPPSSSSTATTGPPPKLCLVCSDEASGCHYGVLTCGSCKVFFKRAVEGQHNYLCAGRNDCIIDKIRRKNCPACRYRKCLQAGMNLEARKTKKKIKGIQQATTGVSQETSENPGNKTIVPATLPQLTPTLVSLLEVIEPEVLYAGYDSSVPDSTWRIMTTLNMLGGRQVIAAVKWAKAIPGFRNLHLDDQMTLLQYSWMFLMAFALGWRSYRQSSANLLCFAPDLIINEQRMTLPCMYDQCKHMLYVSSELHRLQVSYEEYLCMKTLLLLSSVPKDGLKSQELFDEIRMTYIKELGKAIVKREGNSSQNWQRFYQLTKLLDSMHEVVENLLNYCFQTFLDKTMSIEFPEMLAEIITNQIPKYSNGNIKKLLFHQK

[3] = target: hr Beta2 ag (Homo sapiens, UniProt P07550); assay: receptor profile (Table S4); assay type: biochemical
Sequence of hr Beta2 ag (P07550 whole entry): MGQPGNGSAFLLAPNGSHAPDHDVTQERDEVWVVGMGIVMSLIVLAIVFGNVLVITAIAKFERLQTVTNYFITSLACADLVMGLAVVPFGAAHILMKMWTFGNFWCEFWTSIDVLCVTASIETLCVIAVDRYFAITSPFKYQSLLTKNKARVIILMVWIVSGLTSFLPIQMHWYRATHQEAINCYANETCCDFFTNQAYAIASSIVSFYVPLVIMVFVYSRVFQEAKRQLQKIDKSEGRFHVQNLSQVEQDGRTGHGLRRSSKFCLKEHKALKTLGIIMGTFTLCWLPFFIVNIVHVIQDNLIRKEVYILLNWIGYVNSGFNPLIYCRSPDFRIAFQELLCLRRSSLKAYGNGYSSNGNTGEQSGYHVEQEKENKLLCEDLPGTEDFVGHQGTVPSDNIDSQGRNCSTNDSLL

[4] = target: hr EGFR (Homo sapiens, UniProt P00533); assay: receptor profile (Table S4); assay type: biochemical
Sequence of hr EGFR (P00533 25-1210): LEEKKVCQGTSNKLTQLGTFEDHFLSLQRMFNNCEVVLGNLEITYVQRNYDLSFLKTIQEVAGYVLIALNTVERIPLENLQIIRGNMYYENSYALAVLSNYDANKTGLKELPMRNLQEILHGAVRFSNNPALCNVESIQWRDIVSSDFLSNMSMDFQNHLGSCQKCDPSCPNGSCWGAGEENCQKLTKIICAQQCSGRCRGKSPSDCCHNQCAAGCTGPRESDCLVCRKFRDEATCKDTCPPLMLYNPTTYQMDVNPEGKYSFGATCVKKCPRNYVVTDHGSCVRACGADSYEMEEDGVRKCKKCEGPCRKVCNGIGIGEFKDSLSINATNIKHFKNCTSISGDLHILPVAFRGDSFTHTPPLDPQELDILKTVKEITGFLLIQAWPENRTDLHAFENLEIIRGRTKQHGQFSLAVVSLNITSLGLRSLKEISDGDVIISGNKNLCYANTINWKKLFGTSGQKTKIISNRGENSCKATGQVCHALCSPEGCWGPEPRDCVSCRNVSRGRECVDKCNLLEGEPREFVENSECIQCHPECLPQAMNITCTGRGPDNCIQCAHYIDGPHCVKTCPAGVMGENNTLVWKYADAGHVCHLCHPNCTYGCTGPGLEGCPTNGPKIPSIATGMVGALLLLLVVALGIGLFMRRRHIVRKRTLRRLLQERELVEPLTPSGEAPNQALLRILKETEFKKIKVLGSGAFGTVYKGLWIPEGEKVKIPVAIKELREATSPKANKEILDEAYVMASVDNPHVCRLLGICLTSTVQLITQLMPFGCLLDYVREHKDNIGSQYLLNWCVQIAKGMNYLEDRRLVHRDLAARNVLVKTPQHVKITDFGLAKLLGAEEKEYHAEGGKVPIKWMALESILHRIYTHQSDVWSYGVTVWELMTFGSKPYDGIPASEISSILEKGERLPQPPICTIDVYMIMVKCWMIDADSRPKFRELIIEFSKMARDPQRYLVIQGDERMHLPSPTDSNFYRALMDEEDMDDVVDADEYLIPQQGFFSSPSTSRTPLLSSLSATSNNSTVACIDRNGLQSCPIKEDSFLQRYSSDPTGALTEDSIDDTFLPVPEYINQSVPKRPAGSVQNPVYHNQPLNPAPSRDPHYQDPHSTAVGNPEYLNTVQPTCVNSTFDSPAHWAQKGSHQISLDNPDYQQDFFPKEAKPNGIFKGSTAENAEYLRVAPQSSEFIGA

[5] = target: T3, hr TP antag (Homo sapiens, UniProt P21731); assay: receptor profile (Table S4); assay type: biochemical
T3 sequence (P21731 1-343): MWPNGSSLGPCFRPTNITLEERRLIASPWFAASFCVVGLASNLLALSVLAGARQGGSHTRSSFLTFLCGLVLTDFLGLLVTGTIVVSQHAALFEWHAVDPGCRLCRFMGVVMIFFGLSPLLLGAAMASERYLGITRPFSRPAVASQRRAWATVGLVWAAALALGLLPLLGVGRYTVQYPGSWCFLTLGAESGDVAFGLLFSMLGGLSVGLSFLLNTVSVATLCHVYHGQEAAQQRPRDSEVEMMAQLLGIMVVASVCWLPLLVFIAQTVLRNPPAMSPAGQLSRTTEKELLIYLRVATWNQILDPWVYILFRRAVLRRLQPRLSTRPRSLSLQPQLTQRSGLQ

[6] = target: hr M3 (Homo sapiens, UniProt P20309); assay: receptor profile (Table S4); assay type: binding
Sequence of hr M3 (P20309 whole entry): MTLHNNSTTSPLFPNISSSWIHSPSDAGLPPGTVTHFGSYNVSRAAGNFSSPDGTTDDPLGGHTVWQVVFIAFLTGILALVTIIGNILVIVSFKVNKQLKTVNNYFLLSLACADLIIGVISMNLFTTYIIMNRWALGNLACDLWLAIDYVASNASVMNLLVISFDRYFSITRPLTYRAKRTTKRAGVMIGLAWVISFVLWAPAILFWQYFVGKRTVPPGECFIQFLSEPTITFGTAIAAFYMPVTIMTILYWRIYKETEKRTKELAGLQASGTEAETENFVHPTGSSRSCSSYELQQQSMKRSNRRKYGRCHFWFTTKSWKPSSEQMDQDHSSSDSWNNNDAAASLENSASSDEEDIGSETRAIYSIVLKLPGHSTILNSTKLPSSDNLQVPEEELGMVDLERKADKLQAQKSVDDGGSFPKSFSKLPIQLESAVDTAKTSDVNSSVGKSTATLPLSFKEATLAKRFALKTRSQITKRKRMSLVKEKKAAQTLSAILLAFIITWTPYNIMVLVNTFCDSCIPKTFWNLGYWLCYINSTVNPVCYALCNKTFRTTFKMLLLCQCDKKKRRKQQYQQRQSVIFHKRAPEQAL

[7] = target: T4, hr Al2A antag (Homo sapiens, UniProt P08913); assay: receptor profile (Table S4); assay type: biochemical
T4 sequence (P08913 1-465): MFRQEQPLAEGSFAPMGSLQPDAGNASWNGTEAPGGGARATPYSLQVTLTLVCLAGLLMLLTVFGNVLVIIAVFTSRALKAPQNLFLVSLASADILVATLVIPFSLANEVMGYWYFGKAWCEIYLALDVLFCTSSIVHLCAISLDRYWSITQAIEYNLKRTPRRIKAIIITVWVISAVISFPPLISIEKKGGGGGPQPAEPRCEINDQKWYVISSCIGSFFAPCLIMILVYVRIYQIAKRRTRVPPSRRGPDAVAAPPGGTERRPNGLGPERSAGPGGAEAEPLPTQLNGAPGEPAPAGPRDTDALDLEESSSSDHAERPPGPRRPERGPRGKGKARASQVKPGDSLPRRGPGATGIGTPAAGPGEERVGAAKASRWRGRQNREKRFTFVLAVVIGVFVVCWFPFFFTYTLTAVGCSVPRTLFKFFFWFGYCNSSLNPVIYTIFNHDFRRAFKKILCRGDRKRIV

[8] = target: hr Cav1.2 (Homo sapiens, UniProt Q13936); assay: receptor profile (Table S4); conditions: hr Cav1.2
[9] = target: Cav1.2 (Homo sapiens, UniProt Q13936); assay: receptor profile (Table S4); conditions: human
[10] = target: hr ERa antag (Homo sapiens, UniProt P03372); assay: receptor profile (Table S4); assay type: biochemical
Sequence of hr ERa antag (P03372 whole entry): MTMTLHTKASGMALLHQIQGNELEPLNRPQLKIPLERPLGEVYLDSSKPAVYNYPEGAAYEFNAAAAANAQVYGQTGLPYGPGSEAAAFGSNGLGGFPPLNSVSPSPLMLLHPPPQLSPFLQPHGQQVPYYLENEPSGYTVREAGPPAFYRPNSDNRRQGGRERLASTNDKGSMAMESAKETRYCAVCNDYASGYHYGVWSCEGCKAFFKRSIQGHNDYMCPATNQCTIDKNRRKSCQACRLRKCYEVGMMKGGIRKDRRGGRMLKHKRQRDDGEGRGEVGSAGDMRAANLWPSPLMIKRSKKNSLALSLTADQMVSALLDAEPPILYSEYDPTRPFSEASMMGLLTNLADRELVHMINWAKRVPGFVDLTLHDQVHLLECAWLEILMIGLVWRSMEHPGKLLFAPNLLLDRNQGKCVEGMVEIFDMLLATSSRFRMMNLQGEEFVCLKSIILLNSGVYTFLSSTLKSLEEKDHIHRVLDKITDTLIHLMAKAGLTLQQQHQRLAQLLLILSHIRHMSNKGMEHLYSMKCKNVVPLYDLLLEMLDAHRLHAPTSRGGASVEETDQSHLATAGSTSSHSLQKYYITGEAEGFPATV

[11] = target: hr H1 (Homo sapiens, UniProt P35367); assay: receptor profile (Table S4); assay type: binding
Sequence of hr H1 (P35367 whole entry): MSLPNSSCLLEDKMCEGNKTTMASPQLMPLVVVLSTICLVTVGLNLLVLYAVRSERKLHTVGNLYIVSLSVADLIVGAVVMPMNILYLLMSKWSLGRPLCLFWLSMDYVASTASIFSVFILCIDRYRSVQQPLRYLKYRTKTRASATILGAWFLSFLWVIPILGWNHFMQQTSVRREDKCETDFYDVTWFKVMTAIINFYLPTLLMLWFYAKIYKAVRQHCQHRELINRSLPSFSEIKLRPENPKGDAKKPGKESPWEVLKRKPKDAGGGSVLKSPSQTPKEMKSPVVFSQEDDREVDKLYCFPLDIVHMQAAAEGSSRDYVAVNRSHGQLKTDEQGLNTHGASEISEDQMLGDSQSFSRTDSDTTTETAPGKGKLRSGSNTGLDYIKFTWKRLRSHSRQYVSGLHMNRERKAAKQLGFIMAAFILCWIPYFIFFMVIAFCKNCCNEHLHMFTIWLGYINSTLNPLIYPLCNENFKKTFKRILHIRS

[12] = male beagle dog, 1.0 mg/kg PO, dose-normalized

SMILES: Cc1nc(C)c(C(=O)Nc2ccc(F)c(-c3nc4ncc(-c5ncccc5C)cn4n3)c2)o1 [compound 1, N-(4-Fluoro-3-(6-(3-methylpyridin-2-yl)-[1,2,4]triazolo[1,5-a]pyrimidin-2-yl)phenyl)-2,4-dimethyloxazole-5-carboxamide]
- CL as % of hepatic blood flow (dog, IV, fumarate salt): 37 % of hepatic blood flow
- DN AUC PO [12]: 1.5 µM·h
- DN Cmax PO [12]: 0.3 µM
- EC50/IC50 ([1]; h AdT): > 30 µM
- inhibition at 10 µM ([1]; read-out: % inh/act @ 10 µM): 28%
- inhibition at 30 µM ([1]; read-out: % inh/act @ 30 µM): 42%
- EC50/IC50 ([2]; hr GR ag): > 30 µM
- inhibition at 10 µM ([2]; read-out: % inh/act @ 10 µM): -5%
- inhibition at 30 µM ([2]; read-out: % inh/act @ 30 µM): -4%
- EC50/IC50 ([3]; hr Beta2 ag): > 30 µM
- inhibition at 10 µM ([3]; read-out: % inh/act @ 10 µM): 1%
- inhibition at 30 µM ([3]; read-out: % inh/act @ 30 µM): 7%
- EC50/IC50 ([4]; hr EGFR): > 30 µM
- inhibition at 10 µM ([4]; read-out: % inh/act @ 10 µM): 16%
- inhibition at 30 µM ([4]; read-out: % inh/act @ 30 µM): 17%
- EC50/IC50 ([5]; hr TP antag): > 30 µM
- inhibition at 10 µM ([5]; read-out: % inh/act @ 10 µM): 14%
- inhibition at 30 µM ([5]; read-out: % inh/act @ 30 µM): 28%
- EC50/IC50 ([6]; hr M3): > 30 µM
- inhibition at 10 µM ([6]; read-out: % inh/act @ 10 µM): 17%
- inhibition at 30 µM ([6]; read-out: % inh/act @ 30 µM): 25%
- EC50/IC50 ([7]; hr Al2A antag): > 30 µM
- inhibition at 10 µM ([7]; read-out: % inh/act @ 10 µM): 20%
- inhibition at 30 µM ([7]; read-out: % inh/act @ 30 µM): 22%
- EC50/IC50 [8]: > 50 µM
- inhibition at 10 µM [9]: -3%
- inhibition at 30 µM [9]: -7%
- EC50/IC50 ([10]; hr ERa antag): > 30 µM
- inhibition at 10 µM ([10]; read-out: % inh/act @ 10 µM): -8%
- inhibition at 30 µM ([10]; read-out: % inh/act @ 30 µM): -4%
- EC50/IC50 ([11]; hr H1): > 30 µM
- inhibition at 10 µM ([11]; read-out: % inh/act @ 10 µM): 10%
- inhibition at 30 µM ([11]; read-out: % inh/act @ 30 µM): 24%

From paper PMC7549094 (Journal of Medicinal Chemistry, 2020)
